Patent publication US6063812A, “Fumagillol derivatives and processes for preparing the same” (Chong Kun Dang Corporation, priority 1998, dated 2000)
In brackets after ≈: the same amount, converted by molar mass. Like-named read-outs stand apart in the source and are kept apart here.

What was measured:
[1] = tested on: CPAE (Calf Pulmonary Artery Endothelial) cells; assay: Inhibiting activity on angiogenesis in vitro: CPAE cells, SRB method; format: cell-based; settings: Bos taurus, Endothelial cell, 96 h, 4 days, 10% FBS + ECGS
Description: (§1) The compound sample dissolved in DMSO was diluted to ten times by using MEM culture medium (in case of CPAE cells) without adding FBS (Fetal Bovine Serum), and RPMI 1640 culture (in case of EL-4 and P388D1 cells), and 20 μl of the solution was poured to each well of 96 well plate in triplicate for every concentration gradient. Then, each cell suspension was prepared and poured to examine the inhibiting activity on angiogenesis.
In case of CPAE (Calf Pulmonary Artery Endothelial) cells (used after 2-3 subcultures), a cell suspension having 7×10^3 cells/ml was prepared with MEM (+10% FBS+50 μg/ml ECGS) medium, and after pouring the suspension (180 μl) to each well of 96 well plate, they were cultured in a CO2 incubator (5% CO2, humidified) for 4 days.

[2] = tested on: EL-4 (Lymphoma, murine) cells; assay: Inhibiting activity on angiogenesis in vitro: EL-4 cells, MTT method; format: cell-based; settings: Mus musculus, EL4, 72 h, read-out: IC50, EL-4
Description: as §1
In case of EL-4 (Lymphoma, murine) and P388D1 (leukemia, mouse) cells, a cell suspension having 1×10^4 cells/ml was prepared with RPMI1640 (+10% FBS) culture medium, and after pouring the suspension (180 μl) to each well of 96 well plate, they were cultured in a CO2 incubator (5% CO2, humidified) for 3 days.

[3] = EL-4 cells, 3 days, MTT method, 10% FBS

Compound | IC50 [1] | IC50 [2, 3] | IC50 [2]
COc1ccc(/C=C/C(=O)O[C@@H]2CC[C@]3(CO3)[C@@H]([C@@]3(C)O[C@@H]3CC=C(C)C)[C@@H]2OC)cc1 [Example 2, O-(4-methoxycinnamoyl)fumagillol] | 0.0017 ng/mL | 0.0022 ng/mL (≈ 0.00497 nM) | 
COc1cc(/C=C/C(=O)O[C@@H]2CC[C@]3(CO3)[C@@H]([C@@]3(C)O[C@@H]3CC=C(C)C)[C@@H]2OC)cc(OC)c1OC [Example 3, O-(3,4,5-trimethoxycinnamoyl)fumagillol] |  |  | 1.1e-05 ng/mL (≈ 2.19e-05 nM)
CO[C@@H]1[C@H](OC(=O)/C=C/c2ccc(Cl)cc2)CC[C@]2(CO2)[C@H]1[C@@]1(C)O[C@@H]1CC=C(C)C [Example 4, O-(chlorocinnamoyl)fumagillol] | 0.99 ng/mL | 0.84 ng/mL (≈ 1.88 nM) | 
COc1cc(/C=C/C(=O)O[C@@H]2CC[C@](O)(CCl)[C@@H]([C@@]3(C)O[C@@H]3CC=C(C)C)[C@@H]2OC)cc(OC)c1OC [Example 5, 4-(3,4,5-trimethoxycinnamoyl)oxy-2-(1,2-epoxy-1,5-dimethyl-4-hexenyl)-3-methoxy-1-chloromethyl-1-cyclohexanol] | 4.8e-05 ng/mL | 1.1e-05 ng/mL (≈ 2.04e-05 nM) | 
CO[C@@H]1[C@H](OC(=O)/C=C/c2ccc([N+](=O)[O-])cc2)CC[C@]2(CO2)[C@H]1[C@@]1(C)O[C@@H]1CC=C(C)C [Example 7, O-(4-nitrocinnamoyl)fumagillol] | 0.012 ng/mL | 0.054 ng/mL (≈ 0.118 nM) | 
CO[C@@H]1[C@H](OC(=O)/C=C/c2ccc(OC(C)=O)cc2)CC[C@]2(CO2)[C@H]1[C@@]1(C)O[C@@H]1CC=C(C)C [Example 9, O-(4-acetoxycinnamoyl)fumagillol] | 0.0044 ng/mL | 0.0066 ng/mL (≈ 0.014 nM) | 
COc1cc(/C=C/C(=O)O[C@@H]2CC[C@]3(CO3)[C@@H]([C@@]3(C)O[C@@H]3CC=C(C)C)[C@@H]2OC)cc(OC)c1OC(C)=O [Example 11, O-(4-acetoxy-3,5-dimethoxycinnamoyl)fumagillol] | 0.00021 ng/mL | 0.00032 ng/mL (≈ 0.000603 nM) | 
COc1cc(/C=C/C(=O)O[C@@H]2CC[C@]3(CO3)[C@@H]([C@@]3(C)O[C@@H]3CC=C(C)C)[C@@H]2OC)cc(OC)c1O [Example 12, O-(3,5-dimethoxy-4-hydroxycinnamoyl)fumagillol] | 0.00073 ng/mL | 0.00069 ng/mL (≈ 0.00141 nM) | 
COc1ccc(/C=C/C(=O)O[C@@H]2CC[C@](O)(CCl)[C@@H]([C@@]3(C)O[C@@H]3CC=C(C)C)[C@@H]2OC)cc1 [Example 13, 4-(4-methoxycinnamoyl)oxy-2-(1,2-epoxy-1,5-dimethyl-4-hexenyl)-3-methoxy-1-chloromethyl-1-cyclohexanol] | 0.0011 ng/mL | 0.0016 ng/mL (≈ 0.00334 nM) | 
CO[C@@H]1[C@H](OC(=O)/C=C/c2ccc(N(C)C)cc2)CC[C@]2(CO2)[C@H]1[C@@]1(C)O[C@@H]1CC=C(C)C [Example 14, O-(4-dimethylaminocinnamoyl)fumagillol] | 0.00063 ng/mL | 0.00049 ng/mL (≈ 0.00108 nM) | 
CO[C@@H]1[C@H](OC(=O)/C=C/c2ccc(N)cc2)CC[C@]2(CO2)[C@H]1[C@@]1(C)O[C@@H]1CC=C(C)C [Example 15, O-(4-aminocinnamoyl)fumagillol] | 0.0025 ng/mL | 0.0043 ng/mL (≈ 0.0101 nM) | 
COc1cc(/C=C/CO[C@@H]2CC[C@]3(CO3)[C@@H]([C@@]3(C)O[C@@H]3CC=C(C)C)[C@@H]2OC)cc(OC)c1OC [Example 17, O-(3,4,5-trimethoxycinnamyl)fumagillol] | 0.0012 ng/mL | 0.0015 ng/mL (≈ 0.00307 nM) | 
CO[C@@H]1[C@H](OC(=O)/C=C/c2ccc(OCCN(C)C)cc2)CC[C@]2(CO2)[C@H]1[C@@]1(C)O[C@@H]1CC=C(C)C [Example 18, O-(4-dimethylaminoethoxycinnamoyl)fumagillol] | 0.00052 ng/mL | 0.00041 ng/mL (≈ 0.000821 nM) | 
COc1ccc(/C=C/C(=O)O[C@@H]2CC[C@]3(CO3)[C@@H]([C@@]3(C)O[C@@H]3CC=C(C)C)[C@@H]2OC)cc1CN(C)C [Example 19, O-(3-dimethylaminomethyl-4-methoxycinnamoyl)fumagillol] | 0.00032 ng/mL | 0.00057 ng/mL (≈ 0.00114 nM) | 
CO[C@@H]1[C@H](OC(=O)/C=C/c2ccc3c(c2)OCO3)CC[C@]2(CO2)[C@H]1[C@@]1(C)O[C@@H]1CC=C(C)C [Example 20, O-(3,4-methylenedioxycinnamoyl)fumagillol] | 0.00012 ng/mL | 0.00022 ng/mL (≈ 0.000482 nM) | 
COc1cc(N)c(/C=C/C(=O)O[C@@H]2CC[C@]3(CO3)[C@@H]([C@@]3(C)O[C@@H]3CC=C(C)C)[C@@H]2OC)cc1OC [Example 21, O-(3,4-dimethoxy-6-aminocinnamoyl)fumagillol] | 0.00083 ng/mL | 0.00082 ng/mL (≈ 0.00168 nM) | 
CO[C@@H]1[C@H](OC(=O)/C=C/c2ccc(N(C)C)cc2)CC[C@](O)(CCl)[C@H]1[C@@]1(C)O[C@@H]1CC=C(C)C [Example 25, 4-(4-dimethylaminocinnamoyl)oxy-2-(1,2-epoxy-1,5-dimethyl-4-hexenyl)-3-methoxy-1-chloromethyl-1-cyclohexanol] | 0.00033 ng/mL | 0.00041 ng/mL (≈ 0.000833 nM) | 
CO[C@@H]1[C@H](OC(=O)/C=C/C=C/C=C/C=C/C(=O)O)CC[C@]2(CO2)[C@H]1[C@@]1(C)O[C@@H]1CC=C(C)C [Fumagillin, fumagillin, reference compound] |  |  | 1.6 ng/mL (≈ 3.49 nM)
